# According to patent US8178087B2, “Process of production of bacteriophage compositions and methods in phage therapy field” (priority 2006, dated 2012):
# How the values were obtained:
# [1] = test system: AS19 bacterial strain; experiment: different antibiotic test disks, T4-type phages on AS19 bacterial strain; assay type: cell-based, E. coli; conditions: T4-like phages
# [2] = test system: uropathogenic Escherichia coli strain; experiment: antibiotic sensitivity test disks on Petri plate inoculated with child's urine (phage plaques around disks); assay type: cell-based; conditions: plate inoculated with dilution of child's urine; strain infected by bacteriophages
# [3] = test system: non-infected E. coli MFP; experiment: antibiotic sensitivity test disks on non-infected MFP strain; assay type: cell-based, Escherichia coli; conditions: FIG. 1
# [4] = test system: φmF-infected E. coli MFP; experiment: φmF plaque size around antibiotic disks on MFP strain; assay type: cell-based, Escherichia coli
# Text: A culture of non-infected MFP strain has been grown overnight in LB liquid medium, and then a dilution of the culture either alone or mixed with φmF phage have been inoculated on a series of nutrient Petri plate where different antibiotic sensitivity test disks were placed on the surface.
# The entire surface of the Petri plate was inoculated with a mixture of both the MFP bacterial host and with the phage φmF that could infect it (see FIG. 1, φmF-infected E. coli MFP).
# [5] = test system: AS19 bacterial strain; experiment: growth of AS19 bacterial strain in LB liquid medium with low dose CTX (OD600, CFU/ml); assay type: cell-based, E. coli; conditions: CTX 0.003 μg/ml
# Experimental: Growth was measured either by OD600 (A) or CFU/ml (B). The times (T) is indicated in minutes after addition of CTX to the growth medium.
# To examine the effect of low doses of the β-lactam antibiotic CTX on a culture of the AS19 bacterial strain, this bacterial strain was grown in LB liquid medium with CTX at a dosage level (0.003 μg/ml) that produces a substantial effect synergistic when infected with T4 phage.
# [6] = test system: AS19 bacterial strain; experiment: morphology of T4 infected AS19 bacteria with or without CTX by optical microscopy; assay type: cell-based, E. coli; conditions: CTX 0.003 μg/ml, several hours after infection, FIG. 4
# Text: The morphology of the bacteria in culture has been observed by optical microscopy at different times after infection.
# [7] = test system: Escherichia. coli bacterial strain C600; experiment: T4 plaque size with CTX disk on bacterial strain C600; conditions: bacterial strain C600, bacteriophage T4, CTX test disk
# [8] = test system: Escherichia. coli bacterial strain P400; experiment: T4 plaque size with CTX disk on bacterial strain P400; assay type: cell-based; conditions: bacterial strain P400, bacteriophage T4, CTX test disk
# [9] = test system: Escherichia. coli bacterial strain MC1061; experiment: T4 plaque size with CTX disk on bacterial strain MC1061; conditions: bacterial strain MC1061, bacteriophage T4, CTX test disk
# [10] = test system: Escherichia. coli bacterial strain BE; experiment: T4 plaque size with CTX disk on bacterial strain BE; assay type: cell-based; design: key to the marks not given beside the values; conditions: bacteriophage T4, CTX test disk
# [11] = test system: Escherichia. coli bacterial strain S/6; experiment: T4 plaque size with CTX disk on bacterial strain S/6; design: key to the marks not given beside the values; conditions: bacterial strain S/6, bacteriophage T4, CTX test disk
# [12] = test system: Escherichia. coli bacterial strain AS19; experiment: T4 plaque size with CTX disk on bacterial strain AS19; assay type: cell-based; design: key to the marks not given beside the values; conditions: bacterial strain AS19, bacteriophage T4, CTX test disk
compound,measurement,setting,value
Gentamicin,stimulation of T4 phage production (synergistic effect on phage T4 growth),[1],failed to stimulate T4 phage production
CO[C@H]1/C=C/O[C@@]2(C)Oc3c(C)c(O)c4c(O)c(c(/C=N/N5CCN(C)CC5)c(O)c4c3C2=O)NC(=O)/C(C)=C\C=C\[C@H](C)[C@H](O)[C@@H](C)[C@@H](O)[C@@H](C)[C@H](OC(C)=O)[C@@H]1C [Rifampin],stimulation of T4 phage production (synergistic effect on phage T4 growth),[1],failed to stimulate T4 phage production
Colistin,stimulation of T4 phage production (synergistic effect on phage T4 growth),[1],failed to stimulate T4 phage production
C[C@@H]1O[C@@H]1P(=O)(O)O [Fosfomycin],stimulation of T4 phage production (synergistic effect on phage T4 growth),[1],failed to stimulate T4 phage production
"C[C@H]1[C@H](NC(=O)/C(=N\OC(C)(C)C(=O)O)c2csc(N)n2)C(=O)N1S(=O)(=O)O [ATM, aztreonam]",size of phage plaques in the zone of non lethal concentrations of antibiotic that encircled antibiotic disks,[2],much larger
same,sensitivity or resistance of the MFP bacterial strain to antibiotic (zone of growth inhibition around disks),[3],sensitivity
same,stimulation of phage φMFP growth by antibiotic disks,"[4]; FIG. 1, disks marked with +",good stimulation
same,size of φmF plaques in the zone of non lethal antibiotic concentration around disks,"[4]; MFP host mixed with phage φmF, FIG. 1",significantly larger size
COc1cc(Cc2cnc(N)nc2N)cc(OC)c1OC [Trimethoprim],stimulation of T4 phage production (synergistic effect on phage T4 growth),[1],failed to stimulate T4 phage production
CC1(C)S[C@@H]2[C@H](NC(=O)[C@H](N)c3ccc(O)cc3)C(=O)N2[C@H]1C(=O)O [Amoxicillin],sensitivity or resistance of the MFP bacterial strain to antibiotic (zone of growth inhibition around disks),[3],resistance
NCC[C@H](O)C(=O)N[C@@H]1C[C@H](N)[C@@H](O[C@H]2O[C@H](CN)[C@@H](O)[C@H](O)[C@H]2O)[C@H](O)[C@H]1O[C@H]1O[C@H](CO)[C@@H](O)[C@H](N)[C@H]1O [Amikacin],stimulation of T4 phage production (synergistic effect on phage T4 growth),[1],failed to stimulate T4 phage production
O=C(N[C@H](CO)[C@H](O)c1ccc([N+](=O)[O-])cc1)C(Cl)Cl [Choramphenicol],stimulation of T4 phage production (synergistic effect on phage T4 growth),[1],failed to stimulate T4 phage production
"CCn1cc(C(=O)O)c(=O)c2ccc(C)nc21 [Nalidix Acid, Nalidixic acid]",stimulation of T4 phage production (synergistic effect on phage T4 growth),[1],causes a synergistic effect
"CO/N=C(\C(=O)N[C@@H]1C(=O)N2C(C(=O)O)=C(COC(C)=O)CS[C@H]12)c1csc(N)n1 [CTX, Cefotaxime]",cell viability as assayed by colony forming units,[5]; LB liquid medium,little effected
same,cell division,"[5]; LB liquid medium, FIGS. 3A and 3B",inhibited
same,optical density of the culture treated with the drug,[5]; after the addition of the drug,continues to increase for at least two hours
same,cell size of the T4 infected bacteria,[6],increases in volume considerably producing long fat filaments
same,synergy (size of phage plaques) with CTX (Cefotaxime),[7],+
same,synergy (size of phage plaques) with CTX (Cefotaxime),[8],+
same,synergy (size of phage plaques) with CTX (Cefotaxime),[9],+
same,synergy (size of phage plaques) with CTX (Cefotaxime),[10],+++
same,synergy (size of phage plaques) with CTX (Cefotaxime),[11],++
same,synergy (size of phage plaques) with CTX (Cefotaxime),[12],+++
